In US9783586B2, “Inhibitors of the linear ubiquitin chain assembly complex (LUBAC) and related methods” (The United States of America, as represented by the …, priority 2013, dated 2017):
Entries after “also recorded” stand apart in the source; their conditions may differ. Positions of bridges follow the written chain, without caps; N, C: chain ends. Non-standard residues stand in square brackets, D forms with d. Residues, ends and D or L forms follow the SMILES beside them. No end group written: not given here. S5 = C=CCCC[C@](C)(N)C(=O)O; βAla = NCCC(=O)O

How the values were obtained:
Assay type in all cases: cell-based
NF-κB = NF-κB luciferase reporter assay; conditions: for NF-κB activity: ABC DLBCL cells, Example 10 (FIG. 8A); for Relative NF-κB-luciferase reporter activity: HBL1 ABC DLBCL cells, 5 μM or 20 μM, 2 days, relative to DMSO (FIG. 4)
Method: A third experiment was done using a different reporter system for NF-κB activity. HBL1 and TMD8 ABC DLBCL lines cell lines were created with an NF-κB transcriptional reporter by transduction with lentiviral particles containing an inducible NF-κB-responsive luciferase reporter construct (SA Biosciences, Valencia, Calif.) and selected with puromycin. Luciferase activity was measured using the DUAL-LUCIFERASE™ Reporter Assay System (Promega) on a Microtiter Plate Luminometer (Dyn-Ex Technologies, Chantilly, Va.). The transduced HBL and TMD8 cell lines were then transfected with constructs that inducibly express control (SC4) or RNF31 shRNAs described above. Expression of shRNAs was induced using doxycyline, and the luciferase reporter activity in shRNF31 expression cells was measured and normalized relative to control (SC4). Cells were also treated with the specific IKKβ inhibitor (MLN120B) as a positive control. Experiments were done in triplicate, and results are shown in FIG. 2C (error bars indicate SEM).
The ability of these peptides to inhibit NF-κB activity in ABC DLBCL was determined using the NF-κB luciferase reporter assay described above. Negative control cells were treated with dimethyl sulfoxide (DMSO), and positive control cells were treated with Bruton's tyrosine kinase (Btk) inhibitor ibrutinib. […] Cells were treated with peptides at concentrations of 5 μM or 20 μM for 2 days. Relative NF-κB-luciferase reporter activity was normalized and measured relative to control (DMSO-treated) cells. The results of triplicate experiments are shown in FIG. 4 (error bars indicate the SEM).

RBCK1/RNF31 interaction = target: T1, RBCK1/RNF31 interaction (Homo sapiens, UniProt Q9BYM8); assay: RBCK1/RNF31 co-immunoprecipitation (LUBAC complex formation) in co-transfected HEK-293 cells; conditions: for RBCK1/RNF31 interaction (anti-HA immunoprecipitation, densitometry): HEK-293 cells, 5 μM or 20 μM, 24 hours, relative to DMSO (FIGS. 5, 6)
T1 construct: expressed in transfected cells; host or cells: HEK-293
T1 sequence (Q9BYM8 1-510): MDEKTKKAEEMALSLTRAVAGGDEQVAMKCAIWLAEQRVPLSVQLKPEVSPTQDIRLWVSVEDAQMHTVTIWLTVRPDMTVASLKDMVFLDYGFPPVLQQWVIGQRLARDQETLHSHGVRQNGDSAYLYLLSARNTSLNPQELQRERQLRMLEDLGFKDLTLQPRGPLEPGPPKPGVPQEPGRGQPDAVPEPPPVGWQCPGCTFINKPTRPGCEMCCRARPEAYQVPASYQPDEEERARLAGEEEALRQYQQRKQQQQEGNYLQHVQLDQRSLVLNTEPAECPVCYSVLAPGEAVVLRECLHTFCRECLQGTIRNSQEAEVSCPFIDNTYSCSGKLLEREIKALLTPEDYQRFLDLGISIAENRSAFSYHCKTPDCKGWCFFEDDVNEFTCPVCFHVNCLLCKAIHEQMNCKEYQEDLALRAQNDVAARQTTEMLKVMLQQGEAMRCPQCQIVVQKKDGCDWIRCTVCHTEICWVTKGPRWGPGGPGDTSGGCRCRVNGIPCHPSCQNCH

ABC DLBCL cell lines = assay: MTS cell viability assay, ABC DLBCL
Method: (§1) ABC and GCB DLBCL cell lines were treated with RNF31 stapled peptides of Table 2 at concentrations of 5 μM or 20 μM for four days. Cell viability was determined using the following MTS assay. Cells were plated in triplicate at a density of 15,000 cells per well in 96-well plates. Cell viability after indicated treatments was assayed by adding 3-(4,5-dimethylthiazol-2-yl)-5-(3-carboxymethoxyphenyl)-2-(4-sulphophenyl)-2H tetrazolium and an electron coupling reagent (phenazine methosulphate from Promega, Madison, Wis.), incubated for 3 hours and measured by the amount of 490 nm absorbance using a 96-well plate reader. The background was subtracted using a media only control. The results of these MTS assays done in triplicate are shown in FIGS. 7A-7D (error bars indicate the SEM), and cell viability is expressed as the fraction of cells remaining after four days treatment, relative to the initial number of cells at the start of treatment (time 0). The results of MTS cell viability assay indicate that amino-terminal cross-linked peptides RNF31-N (SEQ ID NO: 11) and RNF31-NC (SEQ ID NO: 12) were toxic to ABC DLBCL cell lines but had little effect on GCB DLBCL cell lines tested.

IκBα = assay: IκBα-luciferase reporter assay; conditions: ABC DLBCL cells, Example 10 (FIG. 8B)
Text: In a second experiment, HBL1 and TMD8 ABC DLBCL lines were engineered to contain an NF-κB-driven luciferase reporter. Vectors expressing an IκBα-luciferase fusion protein were constructed using Photinus luciferase from pGL3 vector (Promega, Madison, Wis.) as the reporter and Renilla luciferase construct from phRL-TK (Promega) was used for normalization. Stable clones were identified that were responsive to […] (see Lam et al, Clin Cancer Res, 11: 28-40 (2005)). After development with the DUAL-GLO luciferase assay system (Promega), the ratio of IκBα-Photinus to Renilla luminescence was normalized to that in untreated or uninduced cultures. The IκBα assay, which relies on the correlation between NF-κB activity and IKKβ kinase activity, was previously described in Lenz et al, Science, 319: 1676-1679 (2008). In brief, IKKβ kinase phosphorylates IκBα, which leads to degradation of IκBα (an inhibitor of NF-κB) and thereby activates NF-κB.
The engineered cells were transfected with control (SC4) or RNF31 shRNAs under the control of a doxycyline promoter as described in Example 2. Expression of shRNA was induced with doxycyline, and relative amounts of NF-κB Luciferase reporter activity was measured and normalized relative to control (SC4) shRNA. As additional controls, the expression of NF-κB Luciferase reporter activity was measured in cells that were not expressing shRNAs and which were either treated with the specific IKKβ inhibitor (“MLM-120B”) or untreated (“No Rx”). Experiments were done in triplicate and the results are shown in FIG. 2B (error bars indicate standard error of the mean (SEM)).

GCB DLBCL cell lines = assay: MTS cell viability assay, GCB DLBCL; conditions: 5 μM or 20 μM, four days (FIGS. 7A-7D)
Method: as §1

[1] = ABC DLBCL cells, Example 10 (FIG. 8C)

| Molecule | NF-κB activity (NF-κB) | Interference with LUBAC function (RBCK1/RNF31 interaction; Example 9, tested as described in Example 7 (present tense)) | Cell viability (MTS) (ABC DLBCL cell lines; [1]) | IκBα activity (IκBα-reporter) (IκBα) | Relative NF-κB-luciferase reporter activity (NF-κB) | RBCK1/RNF31 interaction (anti-HA immunoprecipitation, densitometry) (RBCK1/RNF31 interaction) | Cell viability (MTS) (ABC DLBCL cell lines; ABC DLBCL cell lines, 5 μM or 20 μM, four days (FIGS. 7A-7D)) | Cell viability (MTS) (GCB DLBCL cell lines) |
| --- | --- | --- | --- | --- | --- | --- | --- | --- |
| CC(=O)NCCC(=O)N[C@@H](CO)C(=O)N[C@@H](CCCNC(=N)N)C(=O)N[C@@]1(C)CCCC=CCCC[C@@](C)(C(=O)N[C@@H](CCC(N)=O)C(=O)N[C@@H](CCCNC(=N)N)C(=O)N[C@@H](CCC(N)=O)C(=O)N[C@@H](CCCNC(=N)N)C(=O)N[C@@H](CC(C)C)C(=O)N[C@@H](CCC(=O)O)C(=O)N2CCC[C@H]2C(=O)N[C@@H](Cc2ccccc2)C(=O)N[C@@H](CCCNC(=N)N)C(=O)N[C@@H](CC(C)C)C(=O)N[C@@H](CCCNC(=N)N)C(=O)N[C@@]2(C)CCCC=CCCC[C@@](C)(C(N)=O)NC(=O)[C@H](CO)NC(=O)[C@H](CC(=O)O)NC(=O)[C@H](Cc3c[nH]c4ccccc34)NC2=O)NC(=O)[C@H](CCC(=O)O)NC(=O)[C@H]([C@@H](C)O)NC(=O)[C@H](CC(C)C)NC1=O [RNF31-NC Q2L, Ac-βAla Ser Arg Xaa Leu Thr Glu Xaa Gln Arg Gln Arg Leu Glu Pro Phe Arg Leu Arg Xaa Trp Asp Ser Xaa-NH2] (Ac-[βAla]SR[S5]LTE[S5]QRQRLEPFRLR[S5]WDS[S5]-NH2; staple 4-8, 20-24) | inhibited NF-κB activity; also recorded: greatest activity | interfere with LUBAC function | decreased cell viability; also recorded: greatest activity | decreased IκBα activity; also recorded: greatest activity |  |  |  |  |
| Ac-βAla Ser Arg Ala Leu Thr Glu Leu Gln Arg Gln Arg Leu Glu Pro Phe Arg Gln Arg Leu Trp Asp Ser-NH2 (Ac-[βAla]SRALTELQRQRLEPFRQRLWDS-NH2; SMILES CC(=O)NCCC(=O)N[C@@H](CO)C(=O)N[C@@H](CCCNC(=N)N)C(=O)N[C@@H](C)C(=O)N[C@@H](CC(C)C)C(=O)N[C@H](C(=O)N[C@@H](CCC(=O)O)C(=O)N[C@@H](CC(C)C)C(=O)N[C@@H](CCC(N)=O)C(=O)N[C@@H](CCCNC(=N)N)C(=O)N[C@@H](CCC(N)=O)C(=O)N[C@@H](CCCNC(=N)N)C(=O)N[C@@H](CC(C)C)C(=O)N[C@@H](CCC(=O)O)C(=O)N1CCC[C@H]1C(=O)N[C@@H](Cc1ccccc1)C(=O)N[C@@H](CCCNC(=N)N)C(=O)N[C@@H](CCC(N)=O)C(=O)N[C@@H](CCCNC(=N)N)C(=O)N[C@@H](CC(C)C)C(=O)N[C@@H](Cc1c[nH]c2ccccc12)C(=O)N[C@@H](CC(=O)O)C(=O)N[C@@H](CO)C(N)=O)[C@@H](C)O) [RNF31-wt] | inhibited NF-κB activity |  | decreased cell viability | decreased IκBα activity | less of an effect | little if any effect |  |  |
| Ac-βAla Ser Arg Ala Leu Thr Glu Leu Gln Arg Gln Arg Leu Glu Pro Phe Arg Gln Arg Xaa Trp Asp Ser Xaa-NH2 (Ac-[βAla]SRALTELQRQRLEPFRQR[S5]WDS[S5]-NH2; staple 20-24; SMILES CC(=O)NCCC(=O)N[C@@H](CO)C(=O)N[C@@H](CCCNC(=N)N)C(=O)N[C@@H](C)C(=O)N[C@@H](CC(C)C)C(=O)N[C@H](C(=O)N[C@@H](CCC(=O)O)C(=O)N[C@@H](CC(C)C)C(=O)N[C@@H](CCC(N)=O)C(=O)N[C@@H](CCCNC(=N)N)C(=O)N[C@@H](CCC(N)=O)C(=O)N[C@@H](CCCNC(=N)N)C(=O)N[C@@H](CC(C)C)C(=O)N[C@@H](CCC(=O)O)C(=O)N1CCC[C@H]1C(=O)N[C@@H](Cc1ccccc1)C(=O)N[C@@H](CCCNC(=N)N)C(=O)N[C@@H](CCC(N)=O)C(=O)N[C@@H](CCCNC(=N)N)C(=O)N[C@@]1(C)CCCC=CCCC[C@@](C)(C(N)=O)NC(=O)[C@H](CO)NC(=O)[C@H](CC(=O)O)NC(=O)[C@H](Cc2c[nH]c3ccccc23)NC1=O)[C@@H](C)O) [RNF31-C] |  |  |  |  | less of an effect | little if any effect |  |  |
| Ac-βAla Ser Arg Xaa Leu Thr Glu Xaa Gln Arg Gln Arg Leu Glu Pro Phe Arg Gln Arg Leu Trp Asp Ser-NH2 (Ac-[βAla]SR[S5]LTE[S5]QRQRLEPFRQRLWDS-NH2; staple 4-8; SMILES CC(=O)NCCC(=O)N[C@@H](CO)C(=O)N[C@@H](CCCNC(=N)N)C(=O)N[C@@]1(C)CCCC=CCCC[C@@](C)(C(=O)N[C@@H](CCC(N)=O)C(=O)N[C@@H](CCCNC(=N)N)C(=O)N[C@@H](CCC(N)=O)C(=O)N[C@@H](CCCNC(=N)N)C(=O)N[C@@H](CC(C)C)C(=O)N[C@@H](CCC(=O)O)C(=O)N2CCC[C@H]2C(=O)N[C@@H](Cc2ccccc2)C(=O)N[C@@H](CCCNC(=N)N)C(=O)N[C@@H](CCC(N)=O)C(=O)N[C@@H](CCCNC(=N)N)C(=O)N[C@@H](CC(C)C)C(=O)N[C@@H](Cc2c[nH]c3ccccc23)C(=O)N[C@@H](CC(=O)O)C(=O)N[C@@H](CO)C(N)=O)NC(=O)[C@H](CCC(=O)O)NC(=O)[C@H]([C@@H](C)O)NC(=O)[C@H](CC(C)C)NC1=O) [RNF31-N] |  |  |  |  | strongly inhibit NF-κB | inhibited RBCK1/RNF31 interaction in a dose-dependent fashion | toxic | little effect |
| SRALTELQRQRLEPFRQRLWDSG [SEQ ID NO:1] | little or no effect |  | little or no effect | little or no effect |  |  |  |  |
